Measured values reported in patent US6825170B2, “6-O-acyl ketolide antibacterials” (Ortho-McNeil Pharmaceutical, Inc., priority 2001, dated 2004).
Converted amounts (≈) assume the structure as drawn.

Assays:
Assay in all cases: MIC, microdilution broth method (NCCLS)
Type in all cases: cell-based
Settings in all cases: 35° C., 16-20 hours
S. pneumoniae ATCC49619 = system: S. pneumoniae ATCC49619
Method in brief: (§1)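 Actively growing broth cultures are turbidity-adjusted to give about 5×10^4 CFU/well, then added to two-fold compound dilutions in cation-adjusted Mueller-Hinton broth. After 16-20 hours at 35° C, growth is compared with untreated controls.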

E. coli OC2605 = system: E. coli OC2605
Method in brief: as §1

S. aureus ATCC29213 = system: S. aureus ATCC29213
Method in brief: as §1

E. faecalis ATCC29212 = system: E. faecalis ATCC29212
Method in brief: as §1

H. influenzae ATCC49247 = system: H. influenzae ATCC49247
Method in brief: as §1

Compound | MIC (D: S. pneumoniae ATCC49619) (S. pneumoniae ATCC49619) [µg/mL] | MIC (A: E. coli OC2605) (E. coli OC2605) [µg/mL] | MIC (B: S. aureus ATCC29213) (S. aureus ATCC29213) [µg/mL] | MIC (C: E. faecalis ATCC29212) (E. faecalis ATCC29212) [µg/mL] | MIC (E: H. influenzae ATCC49247) (H. influenzae ATCC49247) [µg/mL]
CCC1OC(=O)C(C)C(=O)C(C)C(OC2OC(C)CC(N(C)C)C2O)C(C)(OC(=O)n2cccc2)CC(C)C(=O)C(C)C2NC(=O)OC12C (centres unmarked) [Compound 2] | 0.5 (≈ 0.723 µM) | >16 | >16 | 8 (≈ 11.6 µM) | >16
CCC1OC(=O)C(C)C(=O)C(C)C(OC2OC(C)CC(N(C)C)C2O)C(C)(OC(=O)n2ccc(C=O)c2)CC(C)C(=O)C(C)C2NC(=O)OC12C (centres unmarked) [Compound 3] | 1 (≈ 1.39 µM) | >16 | >16 | 4 (≈ 5.56 µM) | >16
CCC1OC(=O)C(C)C(=O)C(C)C(OC2OC(C)CC(N(C)C)C2O)C(C)(OC(=O)n2ccc(C#N)c2)CC(C)C(=O)C(C)C2NC(=O)OC12C (centres unmarked) [Compound 4] | 1 (≈ 1.4 µM) | >16 | >16 | 4 (≈ 5.58 µM) | >16
CCC1OC(=O)C(C)C(=O)C(C)C(OC2OC(C)CC(N(C)C)C2O)C(C)(OC(=O)NN)CC(C)C(=O)C(C)C2NC(=O)OC12C (centres unmarked) [Compound 5] | 0.5 (≈ 0.761 µM) | >16 | 16 (≈ 24.4 µM) | 4 (≈ 6.09 µM) | 8 (≈ 12.2 µM)
CCC1OC(=O)C(C)C(=O)C(C)C(OC2OC(C)CC(N(C)C)C2O)C(C)(OC(=O)OCC=Cc2ccccc2)CC(C)C(=O)C(C)C2NC(=O)OC12C (centres unmarked) [Compound 6] | 0.03 (≈ 0.0395 µM) | 16 (≈ 21.1 µM) | 0.12 (≈ 0.158 µM) | 0.12 (≈ 0.158 µM) | 1 (≈ 1.32 µM)
CCC1OC(=O)C(C)C(=O)C(C)C(OC2OC(C)CC(N(C)C)C2O)C(C)(OC(=O)OCC=Cc2ccc(-c3ncccn3)cc2)CC(C)C(=O)C(C)C2NC(=O)OC12C (centres unmarked) [Compound 7] | 0.03 (≈ 0.0358 µM) | 8 (≈ 9.56 µM) | 0.12 (≈ 0.143 µM) | 0.06 (≈ 0.0717 µM) | 2 (≈ 2.39 µM)
CCC1OC(=O)C(C)C(=O)C(C)C(OC2OC(C)CC(N(C)C)C2O)C(C)(OC(=O)OCC=Cc2ccc(-c3cccnn3)cc2)CC(C)C(=O)C(C)C2NC(=O)OC12C (centres unmarked) [Compound 20] | 0.03 (≈ 0.0358 µM) | 8 (≈ 9.56 µM) | 0.12 (≈ 0.143 µM) | 0.06 (≈ 0.0717 µM) | 2 (≈ 2.39 µM)
CCC1OC(=O)C(C)C(=O)C(C)C(OC2OC(C)CC(N(C)C)C2O)C(C)(OC(=O)OCc2ccc(-c3ncccn3)cc2)CC(C)C(=O)C(C)C2NC(=O)OC12C (centres unmarked) [Compound 77] | 0.03 (≈ 0.037 µM) | 8 (≈ 9.87 µM) | 0.12 (≈ 0.148 µM) | 0.06 (≈ 0.074 µM) | 2 (≈ 2.47 µM)
CCC1OC(=O)C(C)C(=O)C(C)C(OC2OC(C)CC(N(C)C)C2O)C(C)(OC(=O)OCC#Cc2ccc(-c3ncccn3)cc2)CC(C)C(=O)C(C)C2NC(=O)OC12C (centres unmarked) [Compound 80] | 0.03 (≈ 0.0359 µM) | 16 (≈ 19.2 µM) | 0.25 (≈ 0.299 µM) | 0.12 (≈ 0.144 µM) | 2 (≈ 2.4 µM)
CCC1OC(=O)C(C)C(=O)C(C)C(OC2OC(C)CC(N(C)C)C2O)C(C)(OC(=O)OCC#Cc2ccc(-c3cnccn3)cc2)CC(C)C(=O)C(C)C2NC(=O)OC12C (centres unmarked) [Compound 86] | 0.03 (≈ 0.0359 µM) | 8 (≈ 9.58 µM) | 0.12 (≈ 0.144 µM) | 0.06 (≈ 0.0719 µM) | 2 (≈ 2.4 µM)
CCC1OC(=O)C(C)C(=O)C(C)C(OC2OC(C)CC(N(C)C)C2O)C(C)(OC(=O)OCC#Cc2ccc(-c3cccnn3)cc2)CC(C)C(=O)C(C)C2NC(=O)OC12C (centres unmarked) [Compound 87] | 0.03 (≈ 0.0359 µM) | 8 (≈ 9.58 µM) | 0.12 (≈ 0.144 µM) | 0.06 (≈ 0.0719 µM) | 1 (≈ 1.2 µM)
CCC1OC(=O)C(C)C(=O)C(C)C(OC2OC(C)CC(N(C)C)C2O)C(C)(OC(=O)NOCc2ccccc2)CC(C)C(=O)C(C)C2NC(=O)OC12C (centres unmarked) [Compound 570] | 0.03 (≈ 0.0401 µM) | >16 | 1 (≈ 1.34 µM) | 0.25 (≈ 0.334 µM) | 4 (≈ 5.35 µM)
CCC1OC(=O)C(C)C(=O)C(C)C(OC2OC(C)CC(N(C)C)C2O)C(C)(OC(=O)NOCCc2ccc(-c3ncccn3)cc2)CC(C)C(=O)C(C)C2NC(=O)OC12C (centres unmarked) [Compound 571] | 0.03 (≈ 0.0357 µM) | >16 | 0.5 (≈ 0.595 µM) | 0.12 (≈ 0.143 µM) | 4 (≈ 4.76 µM)
CCC1OC(=O)C(C)C(=O)C(C)C(OC2OC(C)CC(N(C)C)C2O)C(C)(OC(=O)NOCc2ccc(-c3ncccn3)cc2)CC(C)C(=O)C(C)C2NC(=O)OC12C (centres unmarked) [Compound 599] | 0.06 (≈ 0.0726 µM) | 16 (≈ 19.4 µM) | 0.5 (≈ 0.605 µM) | 0.25 (≈ 0.303 µM) | 2 (≈ 2.42 µM)
CCC1OC(=O)C(C)C(=O)C(C)C(OC2OC(C)CC(N(C)C)C2O)C(C)(OC(=O)NOCC=Cc2ccc(-c3ncccn3)cc2)CC(C)C(=O)C(C)C2NC(=O)OC12C (centres unmarked) [Compound 605] | 0.06 (≈ 0.0704 µM) | 16 (≈ 18.8 µM) | 0.25 (≈ 0.293 µM) | 0.25 (≈ 0.293 µM) | 4 (≈ 4.69 µM)
CCC1OC(=O)C(C)C(=O)C(C)C(OC2OC(C)CC(N(C)C)C2O)C(C)(OC(=O)NOCCCc2ccc(-c3ncccn3)cc2)CC(C)C(=O)C(C)C2NC(=O)OC12C (centres unmarked) [Compound 608] | 0.06 (≈ 0.0703 µM) | >16 | 0.5 (≈ 0.585 µM) | 0.5 (≈ 0.585 µM) | 4 (≈ 4.68 µM)

Now from value to compound:

MIC (D: S. pneumoniae ATCC49619) (S. pneumoniae ATCC49619) [µg/mL] | MIC (A: E. coli OC2605) (E. coli OC2605) [µg/mL] | MIC (B: S. aureus ATCC29213) (S. aureus ATCC29213) [µg/mL] | MIC (C: E. faecalis ATCC29212) (E. faecalis ATCC29212) [µg/mL] | MIC (E: H. influenzae ATCC49247) (H. influenzae ATCC49247) [µg/mL] | Compound
0.12 (≈ 0.157 µM) | >16 | 2 (≈ 2.62 µM) | 0.5 (≈ 0.656 µM) | 8 (≈ 10.5 µM) | CC[C@H]1OC(=O)[C@H](C)C(=O)[C@H](C)[C@@H](O[C@@H]2O[C@H](C)C[C@H](N(C)C)[C@H]2O)[C@](C)(OC(=O)NOCCc2ccccc2)C[C@@H](C)C(=O)[C@H](C)[C@H]2NC(=O)O[C@@]21C [Compound 611]
0.06 (≈ 0.0773 µM) | >16 | 1 (≈ 1.29 µM) | 0.25 (≈ 0.322 µM) | 4 (≈ 5.16 µM) | CC[C@H]1OC(=O)[C@H](C)C(=O)[C@H](C)[C@@H](O[C@@H]2O[C@H](C)C[C@H](N(C)C)[C@H]2O)[C@](C)(OC(=O)NOCCCc2ccccc2)C[C@@H](C)C(=O)[C@H](C)[C@H]2NC(=O)O[C@@]21C [Compound 612]
0.12 (≈ 0.164 µM) | >16 | 4 (≈ 5.46 µM) | 0.5 (≈ 0.682 µM) | 4 (≈ 5.46 µM) | CC[C@H]1OC(=O)[C@H](C)C(=O)[C@H](C)[C@@H](O[C@@H]2O[C@H](C)C[C@H](N(C)C)[C@H]2O)[C@](C)(OC(=O)NNc2ccccc2)C[C@@H](C)C(=O)[C@H](C)[C@H]2NC(=O)O[C@@]21C [Compound 624]
0.03 (≈ 0.0402 µM) | >16 | 2 (≈ 2.68 µM) | 0.25 (≈ 0.335 µM) | 4 (≈ 5.36 µM) | CC[C@H]1OC(=O)[C@H](C)C(=O)[C@H](C)[C@@H](O[C@@H]2O[C@H](C)C[C@H](N(C)C)[C@H]2O)[C@](C)(OC(=O)NNCc2ccccc2)C[C@@H](C)C(=O)[C@H](C)[C@H]2NC(=O)O[C@@]21C [Compound 625]
0.03 (≈ 0.0358 µM) | >16 | 0.25 (≈ 0.298 µM) | 0.12 (≈ 0.143 µM) | 4 (≈ 4.77 µM) | CC[C@H]1OC(=O)[C@H](C)C(=O)[C@H](C)[C@@H](O[C@@H]2O[C@H](C)C[C@H](N(C)C)[C@H]2O)[C@](C)(OC(=O)NNCCc2ccc(-c3ncccn3)cc2)C[C@@H](C)C(=O)[C@H](C)[C@H]2NC(=O)O[C@@]21C [Compound 626]
0.03 (≈ 0.0376 µM) | >16 | 0.5 (≈ 0.627 µM) | 0.12 (≈ 0.15 µM) | 2 (≈ 2.51 µM) | CC[C@H]1OC(=O)[C@H](C)C(=O)[C@H](C)[C@@H](O[C@@H]2O[C@H](C)C[C@H](N(C)C)[C@H]2O)[C@](C)(OC(=O)NNCc2ccc3ncccc3c2)C[C@@H](C)C(=O)[C@H](C)[C@H]2NC(=O)O[C@@]21C [Compound 661]
0.06 (≈ 0.0727 µM) | 16 (≈ 19.4 µM) | 0.5 (≈ 0.606 µM) | 0.12 (≈ 0.145 µM) | 2 (≈ 2.42 µM) | CC[C@H]1OC(=O)[C@H](C)C(=O)[C@H](C)[C@@H](O[C@@H]2O[C@H](C)C[C@H](N(C)C)[C@H]2O)[C@](C)(OC(=O)NNCc2ccc(-c3cccnn3)cc2)C[C@@H](C)C(=O)[C@H](C)[C@H]2NC(=O)O[C@@]21C [Compound 675]
0.25 (≈ 0.299 µM) | – | 8 (≈ 9.56 µM) | 1 (≈ 1.19 µM) | 2 (≈ 2.39 µM) | CCC1OC(=O)C(C)C(=O)C(C)C(OC2OC(C)CC(N(C)C)C2O)C(C)(OC(=O)n2ccc(C(=N)CCCc3ccccc3)c2)CC(C)C(=O)C(C)C2NC(=O)OC12C (centres unmarked) [Compound 846]
